{"source": "patent EP0512042B1", "about": "“GLP-1 ANALOGS USEFUL FOR DIABETES TREATMENT” (BUCKLEY, Douglas I., priority 1990, dated 1998)", "key": {"[1]": {"assay": "resistance to degradation in plasma, assay by RP-HPLC", "settings": "incubation in plasma for 60 minutes", "protocol": "In all assays, the plasma is prepared by collecting blood into heparinized tubes, placing the tubes on ice and centrifuging at about 3,000 rpm for 10 minutes in a tabletop centrifuge. The separated plasma is stored at 4°C.\nIn this assay, the analog is added to plasma for various times and recovered similarly to the method described above for radiolabel sequencing analysis. Specifically, the analog at a concentration of 100 nM in RIA buffer is spiked into 1 mL plasma to a final concentration of 1 nM and after incubation in 37°C circulating water bath for various preset times, the reaction is stopped by bringing the plasma to 0.1% (w/v) in bacitracin.\nThe peptides are then purified by Sep-Pak extraction as described above. The eluates are concentrated to about 1 mL on a Speed-vac, diluted with 1 mL distilled water, frozen at 80°C and lyophilized overnight. The powder is resuspended in 0.5 mL Buffer C (0.1% TFA in water) per mL starting plasma and 0.25 mL are injected on a Hewlett-Packard 1090L liquid chromatograph using an Alltech* C18 column (0.45 x 25 cm; 10 µm particle size) with a Brownlee 2 cm C18 guard column. The extraction is monitored at OD214 throughout the run and the solvent flow rate was 1 mL/minute. A gradient between Buffer C and Buffer D (0.1% TFA in acetonitrile) is set up over a 40 minute run time. The gradient starts at 35% D is held for the first 2 minutes after injection and then increased to 42% D over 24 minutes. The gradient is then increased to 60% D over the next two minutes, held at this level for 2 minutes and returned to 35% D over the next 2 minutes. The %D remains at 35% for the remaining 8 minutes of the run. Fractions are collected at 0.5 minute intervals for the first 30 minutes of each run and dried in a Speed-vac."}, "[2]": {"system": "RIN 1046-38 cells", "description": "An additional test for potency of the compounds of the invention measures their ability to stimulate cAMP production in RIN 1046-38 cells. This assay can be conducted as follows:\nOn day 1, 5 x 10^5 RIN 1046-38 cells (Drucker, D.J., et al., Proc Natl Acad Sci USA (1987) 84:3434-3438) are seeded into individual wells of 6-well dishes with 2.5 mL M199 culture medium. On day 4, cells are re-fed with fresh medium and on day 5 the assay is performed. At this time there are ~2.0-2.5 x 10^6 cells per well. Assays are only performed on cell passage <24.\nAt time -60 min, monolayers are washed twice with 2.5 mL PBS, and medium is changed to 1.0 mL of DMEM medium plus 4.5 g/l glucose and 0.1% BSA (assay medium). At 0 time, medium is aspirated and fresh assay medium, 1.0 mL, containing test compound is added. Test compound is added in 50 ul volume of PBS plus 0.1% BSA; controls are added in vehicle alone. Incubation is continued for 0 to 60 min.\nAt termination, conditioned medium and monolayer are harvested to measure both extra- and intracellular cAMP content. For extracellular measurement, medium is removed and centrifuged to remove any cellular debris. For intracellular determination, after medium removal, 1.0 mL of ice cold 95% ethanol is added to monolayer. Cells are collected by scraping, lysed by two cycles of quick freeze/thawing using liquid N2, and cell debris then removed by centrifugation. Aliquots (1/40th well content) of conditioned medium and ethanol cell extract are measured in duplicate for cAMP levels using an RIA kit by the acetylated protocol.\nInsulin secretion can also be measured by the method described by Holst, J.J., et al. FEBS Letters (1987) 211:169-174 (supra). Also useful as an assay for insulinotropic effect is the measurement of stimulation of adenylate cyclase in the RIN 1046-38 cell line. Drucker, D.J. et al., Proc Natl Acad Sci USA (1987) 84:3434-3438 (supra)."}}, "note": "Like-named read-outs stand apart in the source and are kept apart here. Ends that are not written are not given here.", "data": [{"molecule": "CC[C@H](C)[C@H](NC(=O)[C@H](Cc1ccccc1)NC(=O)[C@H](CCC(=O)O)NC(=O)[C@H](CCCCN)NC(=O)[C@H](C)NC(=O)[C@H](C)NC(=O)[C@H](CCC(N)=O)NC(=O)CNC(=O)[C@H](CCC(=O)O)NC(=O)[C@H](CC(C)C)NC(=O)[C@H](Cc1ccc(O)cc1)NC(=O)[C@H](CO)NC(=O)[C@H](CO)NC(=O)[C@@H](NC(=O)[C@H](CC(=O)O)NC(=O)[C@H](CO)NC(=O)[C@@H](NC(=O)[C@H](Cc1ccccc1)NC(=O)[C@@H](NC(=O)CNC(=O)[C@H](CCC(=O)O)NC(=O)[C@H](C)NC(=O)[C@@H](N)CCCCN)[C@@H](C)O)[C@@H](C)O)C(C)C)C(=O)N[C@@H](C)C(=O)N[C@@H](Cc1c[nH]c2ccccc12)C(=O)N[C@@H](CC(C)C)C(=O)N[C@H](C(=O)N[C@@H](CCCCN)C(=O)NCC(=O)N[C@@H](CCCNC(=N)N)C(=O)NCC(=O)O)C(C)C", "note": "[(K)^7-GLP-1(7-37)]", "values": [{"measurement": "Resistance to Degradation", "setting": "[1]", "result": "-"}, {"measurement": "ED50 nM Duplicate Assays", "setting": "[2]", "result": 350.0, "unit": "nM"}]}, {"molecule": "CC[C@H](C)[C@H](NC(=O)[C@H](Cc1ccccc1)NC(=O)[C@H](CCC(=O)O)NC(=O)[C@H](CCCCN)NC(=O)[C@H](C)NC(=O)[C@H](C)NC(=O)[C@H](CCC(N)=O)NC(=O)CNC(=O)[C@H](CCC(=O)O)NC(=O)[C@H](CC(C)C)NC(=O)[C@H](Cc1ccc(O)cc1)NC(=O)[C@H](CO)NC(=O)[C@H](CO)NC(=O)[C@@H](NC(=O)[C@H](CC(=O)O)NC(=O)[C@H](CO)NC(=O)[C@@H](NC(=O)[C@H](Cc1ccccc1)NC(=O)[C@@H](NC(=O)CNC(=O)[C@H](CCC(=O)O)NC(=O)[C@H](C)NC(=O)[C@H](Cc1c[nH]cn1)NC(C)=O)[C@@H](C)O)[C@@H](C)O)C(C)C)C(=O)N[C@@H](C)C(=O)N[C@@H](Cc1c[nH]c2ccccc12)C(=O)N[C@@H](CC(C)C)C(=O)N[C@H](C(=O)N[C@@H](CCCCN)C(=O)NCC(=O)N[C@@H](CCCNC(=N)N)C(=O)NCC(=O)O)C(C)C", "note": "[(N-acetyl-H) ^7-GLP-1(7-37), (N-acetyl-H)^7-GLP-1(7-37)]", "values": [{"measurement": "Resistance to Degradation", "setting": "[1]", "result": "+"}, {"measurement": "ED50 nM Duplicate Assays", "setting": "[2]", "result": 15.5, "unit": "nM"}]}, {"molecule": "CC[C@H](C)[C@H](NC(=O)[C@H](Cc1ccccc1)NC(=O)[C@H](CCC(=O)O)NC(=O)[C@H](CCCCN)NC(=O)[C@H](C)NC(=O)[C@H](C)NC(=O)[C@H](CCC(N)=O)NC(=O)CNC(=O)[C@H](CCC(=O)O)NC(=O)[C@H](CC(C)C)NC(=O)[C@H](Cc1ccc(O)cc1)NC(=O)[C@H](CO)NC(=O)[C@H](CO)NC(=O)[C@@H](NC(=O)[C@H](CC(=O)O)NC(=O)[C@H](CO)NC(=O)[C@@H](NC(=O)[C@H](Cc1ccccc1)NC(=O)[C@@H](NC(=O)CNC(=O)[C@H](CCC(=O)O)NC(=O)[C@H](C)NC(=O)[C@H](CCCCN)NC(C)=O)[C@@H](C)O)[C@@H](C)O)C(C)C)C(=O)N[C@@H](C)C(=O)N[C@@H](Cc1c[nH]c2ccccc12)C(=O)N[C@@H](CC(C)C)C(=O)N[C@H](C(=O)N[C@@H](CCCCN)C(=O)NCC(=O)N[C@@H](CCCNC(=N)N)C(=O)NCC(=O)O)C(C)C", "note": "[(N-acetyl-K)^7 GLP-1 (7-37)]", "values": [{"measurement": "Resistance to Degradation", "setting": "[1]", "result": "+"}]}, {"molecule": "CC[C@H](C)[C@H](NC(=O)[C@H](Cc1ccccc1)NC(=O)[C@H](CCC(=O)O)NC(=O)[C@H](CCCCN)NC(=O)[C@H](C)NC(=O)[C@H](C)NC(=O)[C@H](CCC(N)=O)NC(=O)CNC(=O)[C@H](CCC(=O)O)NC(=O)[C@H](CC(C)C)NC(=O)[C@H](Cc1ccc(O)cc1)NC(=O)[C@H](CO)NC(=O)[C@H](CO)NC(=O)[C@@H](NC(=O)[C@H](CC(=O)O)NC(=O)[C@H](CO)NC(=O)[C@@H](NC(=O)[C@H](Cc1ccccc1)NC(=O)[C@@H](NC(=O)CNC(=O)[C@H](CCC(=O)O)NC(=O)[C@H](C)NC(=O)[C@H](Cc1c[nH]cn1)NC(C)C)[C@@H](C)O)[C@@H](C)O)C(C)C)C(=O)N[C@@H](C)C(=O)N[C@@H](Cc1c[nH]c2ccccc12)C(=O)N[C@@H](CC(C)C)C(=O)N[C@H](C(=O)N[C@@H](CCCCN)C(=O)NCC(=O)N[C@@H](CCCNC(=N)N)C(=O)NCC(=O)O)C(C)C", "note": "[(N-isopropyl-H) ^7-GLP-1(7-37), (N-isopropyl-H)^7-GLP-1(7-37)]", "values": [{"measurement": "Resistance to Degradation", "setting": "[1]", "result": "+"}, {"measurement": "ED50 nM Duplicate Assays", "setting": "[2]", "result": 15.5, "unit": "nM"}]}, {"molecule": "CC[C@H](C)[C@H](NC(=O)[C@H](Cc1ccccc1)NC(=O)[C@H](CCC(=O)O)NC(=O)[C@H](CCCCN)NC(=O)[C@H](C)NC(=O)[C@H](C)NC(=O)[C@H](CCC(N)=O)NC(=O)CNC(=O)[C@H](CCC(=O)O)NC(=O)[C@H](CC(C)C)NC(=O)[C@H](Cc1ccc(O)cc1)NC(=O)[C@H](CO)NC(=O)[C@H](CO)NC(=O)[C@@H](NC(=O)[C@H](CC(=O)O)NC(=O)[C@H](CO)NC(=O)[C@@H](NC(=O)[C@H](Cc1ccccc1)NC(=O)[C@@H](NC(=O)CNC(=O)[C@H](CCC(N)=O)NC(=O)[C@H](C)NC(=O)[C@@H](N)Cc1c[nH]cn1)[C@@H](C)O)[C@@H](C)O)C(C)C)C(=O)N[C@@H](C)C(=O)N[C@@H](Cc1c[nH]c2ccccc12)C(=O)N[C@@H](CC(C)C)C(=O)N[C@H](C(=O)N[C@@H](CCCCN)C(=O)NCC(=O)N[C@@H](CCCNC(=N)N)C(=O)NCC(=O)O)C(C)C", "note": "[(Q)^9 GLP-1 (7-37)]", "values": [{"measurement": "Resistance to Degradation", "setting": "[1]", "result": "-"}]}, {"molecule": "CC[C@H](C)[C@H](NC(=O)[C@H](Cc1ccccc1)NC(=O)[C@H](CCC(=O)O)NC(=O)[C@H](CCCCN)NC(=O)[C@H](C)NC(=O)[C@H](C)NC(=O)[C@H](CCC(N)=O)NC(=O)CNC(=O)[C@H](CCC(=O)O)NC(=O)[C@H](CC(C)C)NC(=O)[C@H](Cc1ccc(O)cc1)NC(=O)[C@H](CO)NC(=O)[C@H](CO)NC(=O)[C@@H](NC(=O)[C@H](CC(=O)O)NC(=O)[C@H](CO)NC(=O)[C@@H](NC(=O)[C@H](Cc1ccccc1)NC(=O)[C@@H](NC(=O)CNC(=O)[C@H](CCC(=O)O)NC(=O)[C@H](C)NC(=O)[C@@H](N)Cc1ccc(O)cc1)[C@@H](C)O)[C@@H](C)O)C(C)C)C(=O)N[C@@H](C)C(=O)N[C@@H](Cc1c[nH]c2ccccc12)C(=O)N[C@@H](CC(C)C)C(=O)N[C@H](C(=O)N[C@@H](CCCCN)C(=O)NCC(=O)N[C@@H](CCCNC(=N)N)C(=O)NCC(=O)O)C(C)C", "note": "[(Y)^7-GLP-1(7-37)]", "values": [{"measurement": "Resistance to Degradation", "setting": "[1]", "result": "-"}, {"measurement": "ED50 nM Duplicate Assays", "setting": "[2]", "result": 5.0, "unit": "nM"}]}, {"molecule": "GLP-1(1-37) [reference compound]", "values": [{"measurement": "ED50 nM Duplicate Assays", "setting": "[2]; first of the duplicate assays", "result": ">1000", "unit": "nM"}, {"measurement": "ED50 nM Duplicate Assays", "setting": "[2]; second of the duplicate assays", "result": 2900, "unit": "nM"}]}, {"molecule": "GLP-1(3-37) (EFERHAEGTFTSDVSSYLEGQAAKEFIAWLVKGRG; Glucagon-like peptide 1; UniProt P01275 94-128, looked up, fragment) [reference compound]", "values": [{"measurement": "ED50 nM Duplicate Assays", "setting": "[2]; first of the duplicate assays", "result": 70, "unit": "nM"}, {"measurement": "ED50 nM Duplicate Assays", "setting": "[2]; second of the duplicate assays", "result": 81, "unit": "nM"}]}, {"molecule": "GLP-1(4-37) (FERHAEGTFTSDVSSYLEGQAAKEFIAWLVKGRG; Glucagon-like peptide 1; UniProt P01275 95-128, looked up, fragment) [reference compound]", "values": [{"measurement": "ED50 nM Duplicate Assays", "setting": "[2]; first of the duplicate assays", "result": 130, "unit": "nM"}, {"measurement": "ED50 nM Duplicate Assays", "setting": "[2]; second of the duplicate assays", "result": 200, "unit": "nM"}]}, {"molecule": "GLP-1(5-37) (ERHAEGTFTSDVSSYLEGQAAKEFIAWLVKGRG; Glucagon-like peptide 1; UniProt P01275 96-128, looked up, fragment) [reference compound]", "values": [{"measurement": "ED50 nM Duplicate Assays", "setting": "[2]; first of the duplicate assays", "result": 150, "unit": "nM"}, {"measurement": "ED50 nM Duplicate Assays", "setting": "[2]; second of the duplicate assays", "result": "750 to 970", "unit": "nM"}]}, {"molecule": "GLP-1(7-37)", "values": [{"measurement": "ED50 nM Duplicate Assays", "setting": "[2]; first of the duplicate assays", "result": 0.16, "unit": "nM"}, {"measurement": "ED50 nM Duplicate Assays", "setting": "[2]; second of the duplicate assays", "result": 0.25, "unit": "nM"}]}, {"molecule": "HSQGTFTSDYSKYLDGQAAKEFIAWLVKGRG [(S)^8(Q)^9(Y)^16(K)^18(D)^21-GLP-1(7-37)]", "values": [{"measurement": "Resistance to Degradation", "setting": "[1]", "result": "-"}, {"measurement": "ED50 nM Duplicate Assays", "setting": "[2]", "result": 0.31, "unit": "nM"}]}, {"molecule": "gastric inhibitory peptide [GIP, reference compound]", "values": [{"measurement": "ED50 nM Duplicate Assays", "setting": "[2]; first of the duplicate assays", "result": 10.0, "unit": "nM"}, {"measurement": "ED50 nM Duplicate Assays", "setting": "[2]; second of the duplicate assays", "result": 37.5, "unit": "nM"}]}]}
